# Where two headings read alike, the source gives them in different places.
# Tests used:
# [1] = test system: L1210 mouse leukemia cells; experiment: formation of colonies of L1210 leukemia cells in soft agar; type: cell-based; settings: Mus musculus
# Procedure: The cytostatic activity of the compounds according to the invention was tested using L1210 mouse leukemia cells. This made use of the formation of colonies of L1210 leukemia cells in agar plates. This method is used to detect the effect of the test substances on the growth behavior of the cells over 1 hour or over several generations. With a cell cycle lasting 10-12 hours, this means that about 14 consecutive generations are observed in a test lasting 7 days. In this test, the substances having cytostatic activity according to the invention bring about a reduction in the number of colonies to be observed by comparison with an untreated control sample.
# 500 leukemia cells per plate were incubated with various concentrations of the test substance at 37° C. for 1 hour. These cells were then washed twice with McCoy5A medium and finally, after addition of 0.3% agar, poured into Petri dishes. Controls were incubated only with fresh medium. In some cases, in place of the incubation for one hour, various concentrations of test substances were mixed with the upper agar layer in order in this way to achieve continuous exposure of the cells throughout the incubation time. After the agar had solidified, the plates were incubated at 37° C. in an incubator for 7 days (5% by vol. CO2, 95% relative humidity). The number of colonies with a diameter of more than 60 μm which had formed was then counted. The results have been given as the number of colonies in treated agar plates as a percentage of the untreated control. The IC50 was determined, as a measure of the activity of the substance, from the dose-effect plot obtained in this way.
# [2] = approximative toxicity, intraperitoneal (LD50); settings: in vivo, ip, three intraperitoneal administrations with an interval of three days between each; read-out: Approximative toxicity LD50, 3xip, q3d
# Description: *3xip,q3d: three intraperitoneal administrations with an interval of thre
# 1xip: one intraperitoneal administration
# L1210 leukemia cells = experiment: cross-resistance in vitro, MTT assay on sensitive and adriamycin (doxorubicin)-resistant L1210 leukemia cells; type: cell-based, mouse; settings: 3d incubation
# Procedure: L1210, A 549 or HT 29 in the exponential phase of growth are incubated in a cell density of 5×10^3 cells/ml in RPMI 1640 in a 96-well microtiter plate for 72 hours with various concentrations of the test substance at 37° C., 5% CO2 and 95% relative humidity. Control experiments contain merely growth medium in place of the test substance. Each test substance and the control are determined in quadruplicate. After incubation for 65 hours, 50 μl of MTT solution (2.5 mg/ml in phosphate-buffered saline) are added. In the presence of live cells, MTT is reduced to a dark-red insoluble formazan dyestuff. This reaction is complete after 7 hours (L1210 cells) or after 24 hours (A 549, HT 29 cells), and the supernatant medium is carefully removed by aspiration. The insoluble dyestuff is dissolved by addition of 100 μl of DMSO, and the extinction of the resulting solution at a wavelength of 492 nm is then measured for each well in a Flow 340 CC multiscan photometer.
# The ratio of the extinctions of treated and untreated cells yields a dose-effect plot from which the concentration which just kills 50% of the cells (IC50) can be read off. The coefficient of variation for repeat tests is less than 15%.
# The cross-resistance between the particular test compound and doxorubicin is determined using the MTT assay (for method, see above) on sensitive and resistant L1210 leukemia cells.
# The resistant cell line was established by incubation of a sensitive subline with stepwise increasing concentrations of the reference compound.
# The IC50 of the test compound on the resistant subline relative to the IC50 of the sensitive subline yields the degree of resistance both for the test compound (DR(T)) and for the reference compound (DR(R)) in accordance with the formula [formula]
# In addition, the degree of cross-resistance (DCR) for the test compound is calculated in accordance with the formula [formula]
# In the case where the loss of activity of the test compound on the resistant line related to the sensitive line is greater than that of the reference compound, a degree of cross-resistance of more than 100% is possible.
smiles,measurement,setting,value
"CC[C@@]1(O)C[C@H](O[C@H]2C[C@H](N(C)C)[C@H](O)[C@H](C)O2)c2c(O)c3c(c(O)c2[C@H]1O[C@H]1C[C@H](N(C)C)[C@H](OC(=O)c2ccc(OC)cc2)[C@H](C)O1)C(=O)c1cccc(O)c1C3=O [Compound 12b, 7-O-α-L-rhodosaminyl-10-O-[4""-O-(p-methoxybenzoyl)-α-L-rhodosaminyl]-β-rhodomycinone]",IC50,"[1]; 168 h, continuous exposure, 7 days, L1210 colony formation, read-out: Long-term incubation IC50",0.011 µg/mL
same,IC50,"[1]; 1 h incubation, then 7 days colony formation, L1210, read-out: 1 h Incubation IC50",0.1 µg/mL
same,LD50,[2],5.33 to 10.7 mg/kg
same,Degree of cross-resistance to adriamycin,L1210 leukemia cells,5.0%
same,Degree of resistance of the cell,L1210 leukemia cells; IC50 resistant subline relative to IC50 sensitive line,5.0

# Source: US4914191A, “Anthracycline derivatives having cytostatic activity” (Behringwerke Aktiengesellschaft, priority 1987, dated 1990)
